According to patent US6251925A, “Therapeutic biaryl derivatives” (Glaxo Wellcome Inc., priority 1998, dated 2001):

Legend:
Type in all cases: cell-based
[1] = target: human beta-3-adrenoceptor (Homo sapiens, UniProt P13945); assay: extracellular cAMP accumulation (agonist activity) in CHO-6CRE-luciferase cells expressing hβ3; details: CHO cells expressing hβ3, 60 min, 37° C.
Description: (§1) A particularly useful method for determining agonist activity at human atypical beta-adrenoceptors involves the use of Chinese hamster ovarian (CHO) cells transfected with the human beta-3-adrenoceptor according to Method 1.
(§2) General cell culture guidelines are observed (Fershney, R. A. (1987) Culture of animal cells: A manual of basic technique. VViley-Liss, Inc., N.Y.). A standard cell culture incubator is used (37° C., 5% CO2 in air, 95% relative humidity). H β3 CHO cells are grown in DMEM/F12 (with pyroxidine.HCl, 15 mM HEPES, L-glutamine), supplanted with 10% heat-inactivated FBS, 500 μg/ml G418, 2 mM L-glutamine, 100 units penicillin G and 100 μg streptomycin sulfate. One confluent flask of cells is trypsinised and resuspended in the above medium at a concentration of 30-40,000 cells/100 μl and plated into 96-well flat bottom plates. The cells are then used for assay within 18-24 hours.
(§3) The medium is aspirated from each well, and replaced with 180 μl DMEM/F12 with […] IBMX. Antagonists, if required, are added at this stage. The plate is then placed back in the incubator for 30 min. Drugs are then added to the wells (20 μl, 100 x required final concentration)for 60 min. Responses were determined by measuring cAMP levels of a 20 ul sample of extracellular media using a scintillation proximity based radio-immunoassay (NEN Flashplates). CHO-6CRE-iuciferase cell lines which stably express hβ3 receptors are seeded at 30,000 cells/well for 24 hr in DMEM/F12 containing 10% FBS. Media is removed from the cells and replaced with DMEM/F12 buffer (180 μl) containing […] IBMX and 1 mM ascorbic acid for 30 min prior to addition of compound. Vehicle or agonist (20 μl) is added and incubated at 37° C. for 60 minutes. At the end of the incubation period, samples of extracellular media are removed for direct assay in cAMP Flashplates (NEN).
(§4) As used herein, a compound is considered to be an agonist for hβ3if the compound stimulates the accumulation of extracellular cAMP with CHO-6CRE-luciferase cells expressing hβ3. […] The relative potency of a hβ3 agonist may be compared to its potency for stimulating the accumulation of extracellular cAMP with CHO-6CRE-luciferase cells expressing hβ2 and hβ1.

[2] = target: human beta-2-adrenoceptor (Homo sapiens, UniProt P07550); assay: extracellular cAMP accumulation in CHO-6CRE-luciferase cells expressing hβ2 (selectivity of hβ3 agonists); details: relative potency hβ3 vs hβ2, cAMP accumulation
Description: as §1, §2, §3, §4

[3] = target: human beta-1-adrenoceptor (Homo sapiens, UniProt P08588); assay: extracellular cAMP accumulation in CHO-6CRE-luciferase cells expressing hβ1 (selectivity of hβ3 agonists); details: relative potency hβ3 vs hβ1, cAMP accumulation
Description: as §1, §2, §3, §4

human beta-3-adrenoceptor, sequence (P13945 whole entry): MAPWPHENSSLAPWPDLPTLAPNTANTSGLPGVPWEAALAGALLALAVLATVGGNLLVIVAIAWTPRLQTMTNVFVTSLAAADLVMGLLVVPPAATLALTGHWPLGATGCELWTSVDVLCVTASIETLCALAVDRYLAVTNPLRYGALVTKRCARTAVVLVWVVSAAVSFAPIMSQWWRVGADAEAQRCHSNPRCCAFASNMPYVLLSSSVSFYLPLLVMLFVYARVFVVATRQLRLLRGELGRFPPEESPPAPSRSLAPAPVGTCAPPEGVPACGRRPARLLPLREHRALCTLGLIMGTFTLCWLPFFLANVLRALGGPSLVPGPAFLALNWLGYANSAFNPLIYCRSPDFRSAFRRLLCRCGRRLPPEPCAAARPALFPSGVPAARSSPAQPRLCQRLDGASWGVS
human beta-1-adrenoceptor, sequence (P08588 whole entry): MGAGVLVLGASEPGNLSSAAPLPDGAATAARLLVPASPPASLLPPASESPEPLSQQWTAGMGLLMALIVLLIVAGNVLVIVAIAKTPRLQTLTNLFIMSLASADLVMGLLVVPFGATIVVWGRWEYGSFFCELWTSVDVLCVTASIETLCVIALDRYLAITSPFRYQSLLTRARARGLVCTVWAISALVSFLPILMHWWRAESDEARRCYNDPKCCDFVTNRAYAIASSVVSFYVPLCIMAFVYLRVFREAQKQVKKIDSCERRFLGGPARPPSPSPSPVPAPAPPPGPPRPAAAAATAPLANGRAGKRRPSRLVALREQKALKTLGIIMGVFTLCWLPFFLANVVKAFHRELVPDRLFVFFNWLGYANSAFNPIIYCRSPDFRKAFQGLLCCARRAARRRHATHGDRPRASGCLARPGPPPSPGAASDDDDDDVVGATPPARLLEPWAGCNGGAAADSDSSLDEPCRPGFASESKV
human beta-2-adrenoceptor, sequence (P07550 whole entry): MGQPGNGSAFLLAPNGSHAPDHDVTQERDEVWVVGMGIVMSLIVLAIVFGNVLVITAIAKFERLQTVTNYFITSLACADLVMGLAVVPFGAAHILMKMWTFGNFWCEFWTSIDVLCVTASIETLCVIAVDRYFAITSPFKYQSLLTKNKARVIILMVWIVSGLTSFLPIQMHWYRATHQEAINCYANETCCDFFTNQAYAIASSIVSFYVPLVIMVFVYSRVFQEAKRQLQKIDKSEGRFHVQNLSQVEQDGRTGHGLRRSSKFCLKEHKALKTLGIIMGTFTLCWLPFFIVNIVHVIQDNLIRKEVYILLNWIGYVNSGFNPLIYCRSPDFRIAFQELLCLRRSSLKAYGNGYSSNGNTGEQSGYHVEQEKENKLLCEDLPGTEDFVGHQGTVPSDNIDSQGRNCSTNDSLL

Row | EC50 [1] | times more potent at hβ3 than at hβ2 [2] | times more potent at hβ3 than at hβ1 [3] | Structure (SMILES)
1 | ≤ 100 nM | at least 100 times | at least 100 times | O=C(O)c1cccc(-c2cccc(NCCNC[C@H](O)c3cc(Cl)cc(Cl)c3)c2)c1 [Example 9, (R)-3'-[[2-[[2-(3,5-Dichlorophenyl)-2-hydroxyethyl]amino]ethyl]amino]-[1,1'-biphenyl]-3-carboxylic acid]
2 | ≤ 100 nM | at least 100 times | at least 100 times | O=C(O)c1ccc(-c2cccc(NCCNC[C@H](O)c3cccc(Cl)c3)c2)c(C(=O)O)c1 [Example 12, (R)-3'-[[2-[[2-(3-Chlorophenyl)-2-hydroxyethyl]amino]ethyl]amino]-[1,1'-biphenyl]-2,4-dicarboxylic acid]
3 | – | at least 100 times | at least 100 times | Cc1ccc(C(=O)O)cc1-c1cccc(NCCNC[C@H](O)c2cccc(Cl)c2)c1 [Example 13, (R)-3'-[[2-[[2-(3-Chlorophenyl)-2-hydroxyethyl]amino]ethyl]amino]-[1,1'-biphenyl]-2-methyl-5-carboxylic acid]
4 | ≤ 100 nM | at least 100 times | at least 100 times | O=C(O)c1ccc(-c2cccc(NCCNC[C@H](O)c3cccc(Cl)c3)c2)cc1Cl [Example 14, (R)-3'-[[2-[[2-(3-Chlorophenyl)-2-hydroxyethyl]amino]ethyl]amino]-[1,1'-biphenyl]-3-chloro-4-carboxylic acid]
5 | ≤ 100 nM | at least 100 times | at least 100 times | C[C@H](CNc1cccc(-c2cncc(C(=O)O)c2)c1)NC[C@H](O)c1cccc(Cl)c1 [Example 21, 5-[3-[[2R-[[2-(3-Chlorophenyl)-2R-hydroxyethyl]amino]propyl]amino]phenyl]-3-pyridinecarboxylic acid]
6 | ≤ 1 nM | at least 100 times | at least 100 times | O=C(O)c1cncc(-c2cccc(NCCNC[C@H](O)c3cccc(Cl)c3)c2)c1 [Example 24, (R)-5-[3-[[2-[[2-(3-chlorophenyl)-2-hydroxyethyl]amino]ethyl]amino]phenyl]-3-pyridinecarboxylic acid]

Continued, molecule first:

Row | Structure (SMILES) | EC50 [1] | times more potent at hβ3 than at hβ2 [2] | times more potent at hβ3 than at hβ1 [3]
7 | O=C(O)c1cccc(-c2cccc(NCCNC[C@H](O)c3cccc(Cl)c3)c2)c1 [Example 10, (R)-3'-[[2-[[2-(3-Chlorophenyl)-2-hydroxyethyl]amino]ethyl]amino]-[1,1'-biphenyl]-3-carboxylic acid] | ≤ 1 nM | at least 100 times | at least 100 times
8 | COC(=O)c1cc(C(=O)O)ccc1-c1cccc(NCCNC[C@H](O)c2cccc(Cl)c2)c1 [Example 11, (R)-3'-[[2-[[2-(3-Chlorophenyl)-2-hydroxyethyl]amino]ethyl]amino]-[1,1'-biphenyl]-2,4-dicarboxylic acid 2-methyl ester] | ≤ 100 nM | at least 100 times | at least 100 times
9 | O=C(O)c1cccc(-c2cccc(NCCNC[C@@H](O)COc3ccccc3)c2)c1 [Example 16] | ≤ 1 nM | at least 100 times | at least 100 times
10 | O=C(O)c1cccc(-c2cccc(OCCNC[C@H](O)c3cccc(Cl)c3)c2)c1 [Example 17] | ≤ 100 nM | at least 100 times | at least 100 times
11 | C[C@H](CNc1cccc(-c2ccc(C(=O)O)cc2C(=O)O)c1)NC[C@H](O)c1cccc(Cl)c1 [Example 20, 3'-[[2R-[[2-(3-Chlorophenyl)-2R-hydroxyethyl]amino]propyl]amino]-[1,1'-biphenyl]-2,4-dicarbonylic acid] | ≤ 1 nM | at least 100 times | at least 100 times
12 | C[C@H](CNc1cccc(-c2ncccc2C(=O)O)c1)NC[C@H](O)c1cccc(Cl)c1 [Example 22, 2-[3-[[2R-[[2-(3-Chlorophenyl)-2R-hydroxyethyl]amino]propyl]amino]phenyl]-3-pyridinecarboxylic acid] | ≤ 100 nM | at least 100 times | at least 100 times
13 | O=C(O)c1cc(-c2cccc(NCCNC[C@H](O)c3cccc(Cl)c3)c2)cc2c1OCC2 [Example 23] | ≤ 100 nM | at least 100 times | at least 100 times
